What all share (format): cell-based, human
One experiment has as its system MeWo melanoma cell line. The experiment is described as follows: SRB cell viability assay in MeWo cells. To be noted: SRB, 72 h; for effect on cell viability: at least until 40 µM; for EC50: Homo sapiens, read-out: EC50 useful in diminishing cell viability. The method, then: (§1) In preliminary experiments, the evaluation of cell viability at different time after compound administration was carried out with sulforhodamine B (SRB) assay. Indeed, after 24-, 48-, and 72-h treatment, an evident time dependence in the inhibition of cell growth was registered (data not shown). Thus, to evaluate A375 and MeWo cell viability, we decided to perform further SRB experiments with each compound only after 72 h.
(§2) Human MeWo (HTB-65) and A375 (CRL-1619) melanoma cell lines as well as the normal human epidermal melanocyte (NHEM) (PCS-200-013) cell line (ATCC, Manassas, VA, USA) were cultured at 37 °C under 5% CO2 in a humidified atmosphere. Roswell Park Memorial Institute 1640 medium (RPMI, Gibco, Ref.21875, Thermo Scientific, Waltham, MA, USA) was used to culture MeWo cells, while Dulbecco’s Modified Eagle Medium (DMEM, Gibco, Ref. 61965, Thermo Scientific, Waltham, MA, USA) was used for A375 and NHEM cell lines. The culture media were supplemented with 10% fetal bovine serum (FBS, Gibco, Thermo Scientific, Waltham, MA, USA) plus 1% Antibiotic Antimycotic Solution (Gibco, Thermo Scientific). The MEK1 inhibitor U0126 (CAY-70970) and the PI3K inhibitor LY294002 (CAY-70920) were provided by Cayman Chemical, Ann Arbor, MI, USA.
(§3) Melanoma MeWo and A375 cells or NHEM were seeded in 96-well plates (5.0 × 10^3 cells/well for MeWo cells and 2.9 × 10^3 cells/well for A375 or NHEM). After 24-h culture, the cells were treated with different concentrations of compounds 1–7. After 72-h treatment, the cells were fixed by adding 25 µL/well of 50% (w/v) TCA directly into the culture medium. The plates were incubated at 4 °C for 1 h, washed four times with ddH2O, and dried at RT. Staining was performed by adding 50 µL/well of 0.04% (w/v) sulforhodamine B (SRB) sodium salt solution (Sigma-Aldrich, Milan, Italy). After 1-h incubation at RT, the plates were rinsed with 1% HAc and air-dried. SRB was solubilized in a 10 mM Tris-base solution pH 10.5 and Abs492 measured in the plate reader TECAN NanoQuant Infinite M200 Pro (Tecan Group Ltd., Männedorf, Switzerland). Six replicates for each condition/data point were performed.

A further experiment deals with A375 melanoma cell line. The experiment is described as follows: SRB cell viability assay in A375 cells. The following applies: for effect on cell viability / A375 cell viability, inhibitor administered alone / EC50: A375, SRB, 72 h; for effect on cell viability: at least until 40 µM; for potentiation of the decrease of A375 cell viability induced by 20 µM salviolone or cryptotanshinone: 10 µM inhibitor added 2 h before the diterpene; for A375 cell viability, inhibitor administered alone: concentration-dependent; for EC50: Homo sapiens, A-375, read-out: half maximal effective concentration (EC50) able to reduce cell viability. On the procedure: as §1, §2, §3

The next experiment deals with pAkt. The experiment is described as follows: Immunoblot of pAkt in A375 cells. The following applies: 10 µM LY294002 with compound 7 or 4 at 20 µM. On the procedure: (§4) A375 cells were seeded in 6 cm Petri dishes (190 300 cell/dish) and treated with different compounds at 10 or 20 μM. After 48- or 72-h treatment, the cells were scraped using warm 1× sample buffer (2% SDS, 10% glycerol, 50 mM Tris-HCl, 1.75% β-mercaptoethanol, and bromophenol blue) and boiled at 99 °C for 10 min. Total protein extracts were kept at −80 °C until use.
(§5) Protein extracts were analyzed with a 7.5 or 10% polyacrylamide SDS-PAGE and transferred to a polyvinylidene difluoride membrane (PVDF, Thermo Fisher Scientific, Waltham, MA, USA). The membranes were blocked at RT for 1 h with TBST buffer (10 mM Tris-HCl pH 7.5, 100 mM NaCl, 0.1% Tween20) containing 4% Milk (Formulat). Then, they were incubated on a shaker, overnight (ON) at 4 °C, with 5% BSA solution containing primary antibodies against p-Tyr705-STAT3 (#9145, 1:1000), pRb (#8516, 1:2000), pERK (#4370, 1:1000), pAkt (#4060, 1:2000), pSer15-P53 (#9286, 1:2000) (Cell Signaling Technology, Danvers, […], USA), Akt (GTX121937, 1:3000), ERK (GTX134452, 1:6000), Cyclin A2 (GTX-103042, 1:3000), p-Thr160Cdk2 (GTX-133862, 1:3000), p21 (GTX-629543, 1:3000) (Genetex, Alton Pkwj Irvine, CA, USA), p53 (Sc-263, 1:1000), STAT3 (Sc-482, 1:1000), and p-Ser727-STAT3 (Sc-136193, 1:1000) (Santa Cruz Biotechnology, Dallas, TX, USA). The membranes were washed three times with TBST buffer for 30 min and then incubated for 1 h with a horseradish-peroxidase-conjugated secondary antibody (anti-rabbit 1:6000, Genetex), (anti-mouse, 1:4000, Cell Signaling Technology, Danvers, […], USA). They were washed another three times for 30 min with TBST buffer. All protein extracts were normalized with a β-actin protein antibody (GTX-124214, 1:10,000; Genetex, Alton Pkwj Irvine, CA, USA). Immuno-detection was carried out with an ECL kit (GE-Healthcare, Little Chalfont, UK), and the chemiluminescence signals were detected with ChemiDoc (Bio-Rad, Hercules, CA, USA).

The subject of the next experiment is pERK1/2. The experiment is described as follows: Immunoblot of pERK1/2 in A375 cells. The following applies: 10 µM U0126 with compound 4 or 7 at 20 µM. The method, then:
as §4, §5

For `Cc1coc2c1C(=O)C(=O)c1c-2ccc2c1[C@@H](O)CCC2(C)C` [Compound 2, 1α-hydroxytanshinone], the “effect on cell viability” value in the experiment on MeWo melanoma cell line and with A375 melanoma cell line was “ineffective” in each case.
Consider `O=c1cc(N2CCOCC2)oc2c(-c3ccccc3)cccc12` [LY294002, reference compound], for which the “pAkt expression level on co-administration” value in the experiment on pAkt was “inhibition”. Moreover, in the experiment on A375 melanoma cell line, the “potentiation of the decrease of A375 cell viability induced by 20 µM salviolone or cryptotanshinone” value is given as “did not potentiate” and the “A375 cell viability, inhibitor administered alone” value is recorded as “inhibited”.
As to `Cc1coc2c1C(=O)C(=O)c1c-2ccc2c1C(=O)CCC2(C)C` [Compound 3, 1-oxotanshinone], the “effect on cell viability” value in the experiment on MeWo melanoma cell line and with A375 melanoma cell line was “ineffective” in each case.
As to `C[C@H]1COC2=C1C(=O)C(=O)c1c2ccc2c1[C@H](O)CCC2(C)C` [Compound 5, 1β-hydroxycryptotanshinone], the EC50 in the experiment on MeWo melanoma cell line is 45 µM; with A375 melanoma cell line, ~42 µM. For the same molecule, in the experiment on A375 melanoma cell line (A375 and MeWo, SRB), the “activity rating for inhibition of melanoma cell viability” value was “poorly active”.
As to `N#CC(=C(/N)Sc1ccccc1N)/C(C#N)=C(/N)Sc1ccccc1N` [Compound U0126, reference compound], the “pERK1/2 expression level on co-administration” value in the experiment with pERK1/2 was “strongly inhibited”. Also, in the experiment with A375 melanoma cell line, the “potentiation of the decrease of A375 cell viability induced by 20 µM salviolone or cryptotanshinone” value is “did not potentiate” and the “A375 cell viability, inhibitor administered alone” value is given as “inhibited”.
With `CC1COc2c1c(=O)oc(=O)c1c3c(ccc21)C(C)(C)CCC3O` (stereo not drawn) [Compound 6, 1α-hydroxyanhydride-16R-cryptotanshinone], the “effect on cell viability” value with MeWo melanoma cell line and in the experiment on A375 melanoma cell line was “ineffective” throughout.
Consider `Cc1coc2c1C(=O)C(=O)c1c-2ccc2c1CCCC2(C)C` [Compound 1, tanshinone IIA], for which the EC50 in the experiment on MeWo melanoma cell line was 2 µM; in the experiment with A375 melanoma cell line it was ~1 µM.
